According to US12729381B2, “Methods and compositions for inactivating interleukin-2-inducible t-cell kinase (ITK)” (priority 2020, dated 2026):
Non-standard residues stand in square brackets, D forms with d. No end group written: not given here. *: point of attachment. FITC = O=C1OC2(c3ccc(O)cc3Oc3cc(O)ccc32)c2ccc(NC(=S)*)cc21; pY = N[C@@H](Cc1ccc(OP(=O)(O)O)cc1)C(=O)O

System: Tregs (CD4+CD25+FoxP3+)
Test: Treg differentiation in total mouse T cells stimulated with anti-CD3
Type: cell-based
Conditions: anti-CD3, 5 to 24 hours; compared to vehicle alone or nonspecific peptide
Text: To ensure that the peptide easily enters cells and that its cellular localization can be monitored, a C-terminal TAT peptide (GRKKRRQRRRPQ) (SEQ ID NO:3) and an N-terminal fluorescent FITC dye were incorporated, respectively, and named it SLP76pTYR peptide ([…]). SLP76pTYR peptide (FITC Dye ^132NEEEEAPVEDDADpYEPPPSNDEEA^155-TAT) (SEQ ID NO:5) and non-specific control peptide (FITC Dye-[…]-TAT) (SEQ ID NO:6) were synthesized by Genscript Inc (Piscataway, NJ). These peptides were initially dissolved in 3% ammonia water to a final concentration of 10 mg/mL and then further diluted into PBS to a final concentration of 0.1 mg/mL. Fresh splenocytes were isolated from WT mice, and T cells were generated from splenocytes as previously described (Baker et al., 2001). […] Cells were examined for the presence of FITC by microscopy using a Leica DMi8 microscope equipped with an infinity total internal reflection fluorescence (TIRF) and DIC modules, a Lumencor SOLA SE II light box, a 150 mW 488 (GFP) laser and filter cube, a 100x/1.47 NA objective, and an Andor iXon Life 897 EMCCD camera. […]

Substance: FITC Dye ^132NEEEEAPVEDDADpYEPPPSNDEEA^155-TAT ({FITC}-NEEEEAPVEDDAD[pY]EPPPSNDEEAGRKKRRQRRRPQ) [SLP76pTYR]
- differentiation of Treg cells: Significantly enhanced differentiation of Treg cells
